This passage reports IC50 and IC90 results from ChEMBL document CHEMBL4483862, “Open-source discovery of chemical leads for next-generation chemoprotective antimalarials” (2018).

The test system of this test is Plasmodium berghei. As to the kind of experiment: Luciferase/luciferin-expressing antifolate-resistant parasites were used to infect a culture of HepG2 cells that were pre-incubated with compounds. Infected hepatocytes emit light due to the luciferase reaction. Assay results are presented as the percent inhibition of light emission compared to control. […]. Type of test: functional. Particulars: sporozoite; for IC90: read-out: LUCIFERASE INFECTION ASSAY - IC90.

The mark [1] stands for this setting: PBLUC_HILL_SLOPE 14.7, PBLUC_R_SQUARED 0.767, read-out: LUCIFERASE INFECTION ASSAY - IC50.

Molecules are shown by their SMILES. pIC50: −log10 of the molar value. Some results are limits rather than exact numbers.

One may read the pIC50 as the negative decadic logarithm of the IC50, by convention in mol/L. For orientation: IC90 means the concentration needed for an effect of 90%. On to `CCOC(=O)c1cc(-c2csc(Nc3c(C)cc(C)cc3C)n2)on1`, for which the 90% effect concentration (IC90) was greater than 9.23 µM. Moreover, the pIC50 (PBLUC_HILL_SLOPE 14.6, PBLUC_R_SQUARED 0.157, read-out: LUCIFERASE INFECTION ASSAY - IC50) was 5.04.

As for `CCN(c1ccccc1)S(=O)(=O)c1cc(NC(=O)Nc2ccccc2C#N)ccc1Cl`, the IC90 is greater than 10 µM. Moreover, the pIC50 (PBLUC_HILL_SLOPE 14.4, PBLUC_R_SQUARED 0.0813, read-out: LUCIFERASE INFECTION ASSAY - IC50) is less than 5.00.

For `Cc1ccc(NC(=S)N/N=C2\C(=O)Nc3ccc([N+](=O)[O-])cc32)cc1`, the IC90 was greater than 10 µM. Where the note is “PBLUC_HILL_SLOPE 14.8, PBLUC_R_SQUARED 0.511, read-out: LUCIFERASE INFECTION ASSAY - IC50”, the pIC50 is 5.05.

Consider `CCOc1ccc(-n2c(C)cc(/C=N/Nc3nc(C)cc(O)n3)c2C)cc1`, for which the concentration for an effect of 90% (IC90) is greater than 10 µM. Besides, the pIC50 (PBLUC_HILL_SLOPE 14.4, PBLUC_R_SQUARED 0.318, read-out: LUCIFERASE INFECTION ASSAY - IC50) is 5.00.

As to `FC(F)(F)Oc1cccc(-c2cnc3cnc(-c4cccnc4)cn23)c1`, the IC90 was greater than 9.26 µM. Also, for the setting “PBLUC_HILL_SLOPE 14.8, PBLUC_R_SQUARED 0.205, read-out: LUCIFERASE INFECTION ASSAY - IC50”, the negative logarithm of the IC50 (pIC50) was 5.06.

For the compound `NC(Cc1ccc(F)cc1)c1csc(Nc2ccc(-c3ccccc3)nn2)n1` (centres undefined), the IC90 is greater than 8.43 µM. Further, the pIC50 (PBLUC_HILL_SLOPE 14.8, PBLUC_R_SQUARED 0.059, read-out: LUCIFERASE INFECTION ASSAY - IC50) is 5.08.

For the compound `Cc1cc(C(=O)Oc2ccccc2C(N)=O)c(C)n1Cc1ccco1`, the IC90 amounted to 1.27 µM. Further, for the setting “PBLUC_HILL_SLOPE 14.9, PBLUC_R_SQUARED 0.682, read-out: LUCIFERASE INFECTION ASSAY - IC50”, the pIC50 is 5.96.

For `c1ccc(Oc2ccccc2-c2cnn3c(NCc4ccccn4)ccnc23)cc1`, the IC90 is greater than 8.39 µM. Also, the pIC50 (PBLUC_HILL_SLOPE 14.9, PBLUC_R_SQUARED 0.143, read-out: LUCIFERASE INFECTION ASSAY - IC50) is 5.08.

As to `CCCn1c(NC(=O)c2cc(-c3cccs3)nc3ccccc23)nc2ccccc21`, the 90% effect concentration (IC90) is greater than 10 µM. In addition, the negative logarithm of the IC50 (pIC50) under setting [1] was 5.03.

As for `CC1CC(C)CN(c2nc3c(c(=O)[nH]c(=O)n3C)n2Cc2ccccc2F)C1` (centres undefined), the IC90 is greater than 8.56 µM. Besides, the negative-log IC50 (pIC50) (PBLUC_HILL_SLOPE 14.3, PBLUC_R_SQUARED 0.575, read-out: LUCIFERASE INFECTION ASSAY - IC50) was 5.09.

Turning to `O=C(c1ccco1)N1CCc2nc(NCc3cccc(Cl)c3)ncc2C1`, the concentration for an effect of 90% (IC90) is 8.86 µM. For the same compound, where the note is “PBLUC_HILL_SLOPE 14.7, PBLUC_R_SQUARED 0.24, read-out: LUCIFERASE INFECTION ASSAY - IC50”, the pIC50 was 5.12.

Regarding `N#Cc1c(F)ccc(NC(=O)Nc2ccc(Cl)cc2)c1F`, the 90% effect concentration (IC90) was greater than 10.7 µM. Besides, the pIC50 (PBLUC_HILL_SLOPE 14.7, PBLUC_R_SQUARED 0.232, read-out: LUCIFERASE INFECTION ASSAY - IC50) was 4.97.

On to `Cc1cccc(/C=C(/C(=O)NCc2ccc(NC(=O)C(C)C)cc2)c2cccs2)c1`, for which the 90% effect concentration (IC90) was determined as 4.58 µM. The pIC50 (PBLUC_HILL_SLOPE 14.7, PBLUC_R_SQUARED 0.598, read-out: LUCIFERASE INFECTION ASSAY - IC50) was 5.40.

Turning to `COc1ccc(OCC(O)CNCC23CC4CC(CC(C4)C2)C3)c(C(C)(C)C)c1` (centres undefined), the IC90 was determined as 9.84 µM. Further, the pIC50 (PBLUC_HILL_SLOPE 14.7, PBLUC_R_SQUARED 0.42, read-out: LUCIFERASE INFECTION ASSAY - IC50) was 5.07.

On to `Cc1ccc2nc(NC(=O)COCc3ccccc3)c(C(=O)NC3CCCC3)n2c1`, for which the concentration for an effect of 90% (IC90) was greater than 8.12 µM. The pIC50 (PBLUC_HILL_SLOPE 14.3, PBLUC_R_SQUARED 0.563, read-out: LUCIFERASE INFECTION ASSAY - IC50) is 5.12.

Turning to `CNc1nc2cnc(-c3ccc(OC)cc3C)cc2n1Cc1ccc(OC)c(OC)c1`, the concentration for an effect of 90% (IC90) turned out to be 1.22 µM. For the same compound, where the note is “PBLUC_HILL_SLOPE 14.3, PBLUC_R_SQUARED 0.611, read-out: LUCIFERASE INFECTION ASSAY - IC50”, the pIC50 is 5.98.

On to `Oc1cccc(-c2cnc3cnc(-c4cccnc4)cn23)c1`, for which the IC90 was greater than 11.4 µM. In addition, the pIC50 (PBLUC_HILL_SLOPE 14.9, PBLUC_R_SQUARED 0.072, read-out: LUCIFERASE INFECTION ASSAY - IC50) was 4.97.

As for `CCOc1cccc(-c2cn3c(-c4ccc(C(=O)N(C)C)cc4)cnc3cn2)c1`, the IC90 was determined as 3.39 µM. Also, the negative-log IC50 (pIC50) (PBLUC_HILL_SLOPE 14.8, PBLUC_R_SQUARED 0.204, read-out: LUCIFERASE INFECTION ASSAY - IC50) is 5.53.

On to `Cc1onc(-c2ccccc2)c1C(=O)ON=C1C2CC3CC(C2)CC1C3`, for which the 90% effect concentration (IC90) is greater than 9.42 µM. Besides, the negative logarithm of the IC50 (pIC50) (PBLUC_HILL_SLOPE 14.9, PBLUC_R_SQUARED 0.433, read-out: LUCIFERASE INFECTION ASSAY - IC50) is 5.06.

With `CCCn1c(NC(=O)c2cccnc2SC)nc2ccccc21`, the IC90 was greater than 10 µM. Also, the pIC50 (PBLUC_HILL_SLOPE 14.8, PBLUC_R_SQUARED 0.146, read-out: LUCIFERASE INFECTION ASSAY - IC50) is 5.04.

Take `COc1cc(-c2ccnc3n[nH]c(-c4ccc(N(C)C)cc4)c23)cc(OC)c1OC`: the IC90 was determined as 3.63 µM. Besides, the pIC50 (PBLUC_HILL_SLOPE 14.6, PBLUC_R_SQUARED 0.557, read-out: LUCIFERASE INFECTION ASSAY - IC50) was 5.51.

In the case of `Cc1nn(-c2ccccc2C(F)(F)F)c2nc(-c3ccccc3)cc(C(=O)N3CCCC(C)C3)c12` (centres undefined), the IC90 was greater than 10 µM. For the same compound, where the note is “PBLUC_HILL_SLOPE 14.7, PBLUC_R_SQUARED 0.435, read-out: LUCIFERASE INFECTION ASSAY - IC50”, the negative-log IC50 (pIC50) was 5.02.

With `CC(C)(C)c1ccc(C(=O)NNC(=S)Nc2ccc(Cl)cc2)cc1`, the IC90 was determined as 8.97 µM. Further, the pIC50 (PBLUC_HILL_SLOPE 14.6, PBLUC_R_SQUARED 0.46, read-out: LUCIFERASE INFECTION ASSAY - IC50) is 5.11.

Consider `CCCCn1c(N)c(N(CCC)C(=O)/C=C/c2cccc3cccnc23)c(=O)[nH]c1=O`, for which the IC90 is 3.69 µM. In addition, the pIC50 (PBLUC_HILL_SLOPE 14.7, PBLUC_R_SQUARED 0.526, read-out: LUCIFERASE INFECTION ASSAY - IC50) was 5.50.

As to `COc1ccc(-n2c(C)cc(/C=C(\C#N)C(=O)NCc3nnc4ccccn34)c2C)cc1`, the IC90 came to 9.17 µM. For the same compound, where the note is “PBLUC_HILL_SLOPE 14.5, PBLUC_R_SQUARED 0.61, read-out: LUCIFERASE INFECTION ASSAY - IC50”, the pIC50 is 5.10.

Regarding `CC(C)COc1ccc(NC(=O)c2ccnn2C)cc1Cl`, the IC90 is greater than 10 µM. Also, the negative logarithm of the IC50 (pIC50) (PBLUC_HILL_SLOPE 14.7, PBLUC_R_SQUARED 0.488, read-out: LUCIFERASE INFECTION ASSAY - IC50) was 5.04.

As to `O=C(c1ccc(Cn2cccn2)cc1)N(C/C=C/c1ccccc1)c1ccc2c(c1)OCCO2`, the concentration for an effect of 90% (IC90) was found to be 5.09 µM. In addition, the pIC50 (PBLUC_HILL_SLOPE 14.4, PBLUC_R_SQUARED 0.81, read-out: LUCIFERASE INFECTION ASSAY - IC50) was 5.36.

As to `Cc1cc(C)n(-c2cc(N3CCN(C)CC3)nc(-c3ccccc3)n2)n1`, the IC90 is greater than 9.47 µM. Also, under “PBLUC_HILL_SLOPE 14.6, PBLUC_R_SQUARED 0.207, read-out: LUCIFERASE INFECTION ASSAY - IC50”, the pIC50 is 5.06.

Turning to `COc1ccc(CCN2C(=O)N(C(C)C)C(=O)C23CCN(Cc2ccc(Cl)cc2)CC3)cc1`, the IC90 was greater than 7.02 µM. Moreover, the pIC50 (PBLUC_HILL_SLOPE 14.8, PBLUC_R_SQUARED 0.317, read-out: LUCIFERASE INFECTION ASSAY - IC50) was 5.21.

As for `COCCOc1ccc(C(F)(F)F)cc1NC(=O)c1ccc(SCc2cscn2)cc1`, the 90% effect concentration (IC90) was greater than 10 µM. For the same compound, the negative logarithm of the IC50 (pIC50) (PBLUC_HILL_SLOPE 14.5, PBLUC_R_SQUARED 0.0793, read-out: LUCIFERASE INFECTION ASSAY - IC50) is 5.05.

For `Cn1c(N)c(C(=O)COC(=O)c2ccccc2-c2nc3ccccc3s2)c(=O)n(C)c1=O`, the IC90 is greater than 10 µM. Besides, under setting [1], the pIC50 was 5.03.

On to `Cc1cc(NCc2c(F)cccc2Cl)ccc1N1CCCC1=O`, for which the IC90 is greater than 10 µM. Besides, the negative-log IC50 (pIC50) (PBLUC_HILL_SLOPE 14.5, PBLUC_R_SQUARED 0.0625, read-out: LUCIFERASE INFECTION ASSAY - IC50) was 5.01.

`N#C/C=C/C=C/c1nnn(-c2ccc(Cl)cc2)n1`: the IC90 came out at 12.6 µM. Besides, under “PBLUC_HILL_SLOPE 14.5, PBLUC_R_SQUARED 0.28, read-out: LUCIFERASE INFECTION ASSAY - IC50”, the pIC50 is 4.96.

For the compound `CCn1c(NC(=O)CCc2ccc3c(c2)OCCO3)nc2ccccc21`, the IC90 is greater than 10 µM. The negative-log IC50 (pIC50) (PBLUC_HILL_SLOPE 14.7, PBLUC_R_SQUARED 0.597, read-out: LUCIFERASE INFECTION ASSAY - IC50) is 5.04.

`CSc1ncc(Nc2nc(-c3ccccc3)c(-c3ccccc3)s2)cn1`: the 90% effect concentration (IC90) was 4.18 µM. In addition, the negative logarithm of the IC50 (pIC50) (PBLUC_HILL_SLOPE 14.9, PBLUC_R_SQUARED 0.41, read-out: LUCIFERASE INFECTION ASSAY - IC50) is 5.44.

`CNc1nc2cnc(-c3ccc(F)cc3)cc2n1Cc1ccc(OC)c(OC)c1`: the IC90 came to 3.97 µM. The pIC50 (PBLUC_HILL_SLOPE 14.4, PBLUC_R_SQUARED 0.339, read-out: LUCIFERASE INFECTION ASSAY - IC50) was 5.47.

`Oc1ccccc1-c1cc(-c2ccccc2)nn1Cc1ccccc1`: the IC90 came to 3.93 µM. Moreover, the pIC50 (PBLUC_HILL_SLOPE 14.4, PBLUC_R_SQUARED 0.373, read-out: LUCIFERASE INFECTION ASSAY - IC50) is 5.47.
